Laboratory results as given in US20160374967A1, “ORGANIC THIOPHOSPHATE ANTIRETROVIRAL AGENTS” (The Government of the U.S.A., as Represented by the …, priority 2006, published 2016).
Where two headings read alike, the source gives them in different places.

Columns and labels:
[1] = tested on: HIV; assay: microbe, parasite or virus in culture; type: cell-based; conditions: for duration of action (anti-HIV, cell culture): cysteamine re-added every 12 hours, WR-1065 added once in 72 hour period
[2] = tested on: HIV-1BZ-167; assay: HIV-1 replication in PHA-blasts by p24 ELISA, dose-response and combinations; type: cell-based; conditions: for IC50: n=3, read-out: 50% Inhibition of virus replication
[3] = tested on: PHA-blasts; conditions: human, 72 h
[4] = mouse, in vivo; cited from earlier work
[5] = cited from earlier work
[6] = mice, cited from earlier work
[7] = in vivo; cited from earlier work
[8] = tested on: PHA blasts; assay: Viability of PHA blasts exposed to WR-1065 (no HIV), 72 h; type: cell-based, human
[9] = tested on: TK6 cells; assay: 14-day survival of TK6 cells in continuous presence of WR-1065; type: cell-based, human
[10] = tested on: HIV; type: cell-based; conditions: human T-lymphocytes
[11] = tested on: adenovirus; assay: Antiviral efficacy against adenovirus; conditions: three different species of adenovirus
[12] = tested on: influenza
[13] = rhesus macaques, duodenal 150 mg/kg BW of amifostine or phosphonol, cited from earlier work
[14] = tested on: PHA-blasts; assay: Cell survival (cytotoxicity) by trypan blue in HIV-1 infected PHA-blasts
[15] = metabolite after amifostine injection at 500-910 mg/m^2
[16] = metabolite after amifostine injection

With `Cc1cn([C@H]2C[C@H](N=[N+]=[N-])[C@@H](CO)O2)c(=O)[nH]c1=O` [AZT, Zidovudine, reference compound] the “HIV Viral P24” value ([1]; Experiment #1, 10 μM AZT, 72 h) was 0.13 pg/mL, the “HIV Viral P24” value ([1]; Experiment #2, 10 μM AZT, 72 h) was 9.07 pg/mL and the “HIV Viral P24” value ([1]; Experiment #3, 10 μM AZT, 72 h) was 2.9 pg/mL. For the same molecule, the inhibition at 10 µM ([1]; Human immunodeficiency virus 1, PBMC, 72 h, Experiment #1, 10 μM AZT, 72 h, read-out: Estimated percent inhibition) was about 100%, the inhibition at 10 µM ([1]; Human immunodeficiency virus 1, PBMC, 72 h, Experiment #2, 10 μM AZT, 72 h, read-out: Estimated percent inhibition) was 94.9% and the inhibition at 10 µM ([1]; Human immunodeficiency virus 1, PBMC, 72 h, Experiment #3, 10 μM AZT, 72 h, read-out: Estimated percent inhibition) was about 100%. The “inhibition of virus replication” value ([2]; AZT 0.8, 3.0 and 5.0 μM) was 85-96%, the “dose for 50% reduction in HIV-1 replication, fold lower than that of WR-1065” value ([2]; AZT versus WR-1065) was “about 1000 fold” and the inhibition at 7.75 µM ([2]; Human immunodeficiency virus 1, 7.75 μM, alone, mean±SD, n=4) was 96.7 ± 5.1%. For the same molecule, the IC50 ([2]; Human immunodeficiency virus 1, dose-response 1.9-117.0 nM, mean±SE) was 0.0035 ± 0.0007 µM and the target cell survival ([3]; 7.75 μM) was 54±15%.

For `NCCS` [Cysteamine, reference compound], the “suppression of HIV replication” value ([1]; 200 μM) was about 100% and the “duration of action (anti-HIV, cell culture)” value [1] was “very short”.

In the case of `NCCCNCCSP(=O)(O)O` [Amifostine, S-2-(3-aminopropyl)aminoethyl phosphorothioic acid], the inhibition at 50 µM ([2]; Human immunodeficiency virus 1, 50 μM amifostine (with alkaline phosphatase), mean±SE, n=4) is listed as 75.4 ± 8.3%, the cell survival ([3]; 50 μM) is listed as 53±10% and the “100% effective radioprotective dose” value [4] is listed as “about one half of the MTD”. For the same molecule, the “plasma T1/2” value ([5]; in vivo) was about 0.167 h, the “maximally tolerated dose (MTD)” value ([6]; i.p.) was 432 mg/kg BW and the “maximally tolerated dose (MTD)” value ([6]; p.o.) was 720 mg/kg BW. The “effects of single doses of up to 2700 mg/m^2” value [7] was “no untoward effects”.

For `NCCCNCCS` [WR-1065, 2-(3-aminopropylamino)ethanethiol], the “in vitro anti-HIV potency relative to cysteamine” value [1] was 2 fold, the “HIV inhibition in human PBMCs (in words)” value ([1]; Experiment #1, 1000 μM) was “inhibits HIV completely” and the “HIV Viral P24” value ([1]; Experiment #1, 1000 μM WR-1065, 72 h) was 0.13 pg/mL. The “influence on the effect of 10 μM AZT” value ([1]; Experiment #1, 1000 μM WR-1065 with 10 μM AZT) was “does not appear to alter”, the “HIV Viral P24” value ([1]; Experiment #2, 100 μM WR-1065, 72 h) was 8.92 pg/mL and the “HIV Viral P24” value ([1]; Experiment #2, 330 μM WR-1065, 72 h) was 9.31 pg/mL. The “HIV Viral P24” value ([1]; Experiment #2, 1000 μM WR-1065, 72 h) was 8.92 pg/mL, the “HIV infection inhibition in human PBMCs (in words)” value ([1]; Experiment #2, concentrations as low as 100 μM) was “inhibit HIV infection completely” and the “HIV Viral P24 pg/ml” value ([1]; Experiment #3, 5 μM WR-1065, 72 h) was 10,293.7 pg/ml. The “HIV Viral P24” value ([1]; Experiment #3, 10 μM WR-1065, 72 h) was 911.2 pg/mL, the “HIV Viral P24” value ([1]; Experiment #3, 33 μM WR-1065, 72 h) was 503.2 pg/mL and the “HIV Viral P24” value ([1]; Experiment #3, 66 μM WR-1065, 72 h) was 33.2 pg/mL. It also gave an inhibition at 1000 µM ([1]; Human immunodeficiency virus 1, PBMC, 72 h, Experiment #1, 1000 μM WR-1065, 72 h, read-out: Estimated percent inhibition) of about 100%, an inhibition at 100 µM ([1]; Human immunodeficiency virus 1, PBMC, 72 h, Experiment #2, 100 μM WR-1065, 72 h, read-out: Estimated percent inhibition) of 94.9% and an inhibition at 330 µM ([1]; Human immunodeficiency virus 1, PBMC, 72 h, Experiment #2, 330 μM WR-1065, 72 h, read-out: Estimated percent inhibition) of 94.7%. It also gave an inhibition at 1000 µM ([1]; Human immunodeficiency virus 1, PBMC, 72 h, Experiment #2, 1000 μM WR-1065, 72 h, read-out: Estimated percent inhibition) of 94.9%, an inhibition at 5 µM ([1]; Human immunodeficiency virus 1, PBMC, 72 h, Experiment #3, 5 μM WR-1065, 72 h, read-out: Estimated percent inhibition) of 76.8% and an inhibition at 10 µM ([1]; Human immunodeficiency virus 1, PBMC, 72 h, Experiment #3, 10 μM WR-1065, 72 h, read-out: Estimated percent inhibition) of 98%. The inhibition at 33 µM ([1]; Human immunodeficiency virus 1, PBMC, 72 h, Experiment #3, 33 μM WR-1065, 72 h, read-out: Estimated percent inhibition) was 98.9%, the inhibition at 66 µM ([1]; Human immunodeficiency virus 1, PBMC, 72 h, Experiment #3, 66 μM WR-1065, 72 h, read-out: Estimated percent inhibition) was 99.9% and the “suppression of HIV replication” value ([1]; concentration of less than 100 μM) was over 99.9%. The “duration of action (anti-HIV, cell culture)” value [1] was “long duration of action”, the “% Viable Cells (compared to control)” value ([8]; 1 μM) was 83% and the “% Viable Cells (compared to control)” value ([8]; 5 μM) was 82%. For the same molecule, the “% Viable Cells (compared to control)” value ([8]; 10 μM) was 90%, the “% Viable Cells (compared to control)” value ([8]; 50 μM) was 89% and the “% Viable Cells (compared to control)” value ([8]; 100 μM) was 63%. The “% Viable Cells (compared to control)” value ([8]; 500 μM) was 73%, the “% Viable Cells (compared to control)” value ([8]; 1000 μM) was 30% and the HIV-1 growth inhibition ([2]; 103-206 μM WR-1065) was at least 94%. It also gave an inhibition at 26 µM ([2]; Human immunodeficiency virus 1, 26 μM WR-1065, mean SE, n=5) of 65 ± 7.5%, an inhibition at 50 µM ([2]; Human immunodeficiency virus 1, 50 μM WR-1065, n=5) of 83.2 ± 18.6% and an inhibition at 52 µM ([2]; Human immunodeficiency virus 1, 52 μM WR-1065, n=7) of 88.7 ± 5.5%. The inhibition at 100 µM ([2]; Human immunodeficiency virus 1, 100 μM WR-1065, n=5) was 92 ± 11%, the inhibition at 103 µM ([2]; Human immunodeficiency virus 1, 103 μM WR-1065, n=8) was 93.9 ± 3.1% and the IC50 ([2]; Human immunodeficiency virus 1, dose-response 2.5-103.0 μM, mean±SE) was 3.1 ± 0.6 µM. The “effect on antiretroviral activity of 0.8-3.0 μM AZT” value ([2]; WR-1065 at 26 μM) was “did not inhibit”, the 14-day survival ([9]; continuous 50-100 μM WR-1065) was under 20% and the 14-day survival ([9]; continuous 50-100 μM WR-1065, 10 mg/ml aminoguanidine added from day 4) was 70-80%. The “intra-cellular concentration necessary to reduce HIV replication by ~100%” value [10] was about 50 picomoles/10^6 cells, the antiviral efficacy [11] was “has antiviral efficacy” and the antiviral efficacy [12] was “has antiviral efficacy”. The “Concentration (μg/ml), plasma” value ([13]; 1 h after administration) was 6.21 µg/mL, the “Concentration (μg/ml), plasma” value ([13]; 2 h after administration) was 4.14 µg/mL and the “Concentration (μg/ml), plasma” value ([13]; 6 h after administration) was 2.07 µg/mL. The T1/2 [5, 15] was at least 2 h, the peak plasma level [5, 15] was about 100 µM and the bioavailability [5, 16] was “high”. The tissue distribution [5, 16] was “widespread”, the cell survival ([14]; 26 μM WR-1065) was 37% and the cell survival ([14]; 50 μM WR-1065) was 55±22%. The cell survival ([14]; 52 μM WR-1065) was 49%, the cell survival ([14]; 100 μM WR-1065) was 42±18% and the cell survival ([14]; 103 μM WR-1065) was 78%.
